Among the data in ChEMBL document CHEMBL1158924, “Cytotoxic constituents of the bark of Plumeria rubra collected in Indonesia” (1990) are EC50 values, retold here.

SMILES strings stand for the structures. Values after ≈ are worked out from the molar mass of the structure shown. Some results are limits rather than exact numbers.

Common to all, as to format: functional
Assay [1] deals with KB. Briefly: Cytotoxicity against human KB cells. As to conditions: read-out: ED50 (the source's name).
Assay [2] can be described thus: Cytotoxicity against human colon cancer cells. As to conditions: Cancer cell lines, read-out: ED50 (the source's name).
For assay [3], the system named is P388. Briefly: Cytotoxicity against mouse P388 cells. To be noted: read-out: ED50 (the source's name).
Assay [4] can be described thus: Cytotoxicity against human melanoma cells. As to conditions: Melanoma cell, read-out: ED50 (the source's name).
The nature of assay [5]: Cytotoxicity against human breast cancer cells. To be noted: Cancer cell lines, read-out: ED50 (the source's name).
Assay [6] is described as follows: Cytotoxicity against human lung cancer cells. As to conditions: Cancer cell lines, read-out: ED50 (the source's name).
The test system of assay [7] is HT-1080. Briefly: Cytotoxicity against human HT1080 cells. As to conditions: read-out: ED50 (the source's name).

Take `C[C@H](O)C1=C[C@@]2(C=C[C@@H]3C(C(=O)O)=CO[C@@H](O[C@@H]4O[C@H](CO)[C@@H](O)[C@H](O)[C@H]4O)[C@@H]32)OC1=O`: the EC50 in assay [1], in assay [2], in assay [3], in assay [4], in assay [5] and in assay [6] was more than 50 mg/L throughout. Also, the EC50 in assay [7] was more than 50 mg/L.

In the case of `COC1=CC(=O)C(OC)=CC1=O`, the EC50 in assay [1] is 3.8 mg/L (≈ 22.6 µM); in assay [2] it was 1.4 mg/L (≈ 8.33 µM); in assay [3], 2.5 mg/L (≈ 14.9 µM); in assay [4] it was 2.7 mg/L (≈ 16.1 µM); in assay [5], 5.2 mg/L (≈ 30.9 µM); in assay [6] it was 1.3 mg/L (≈ 7.73 µM). For the same compound, the EC50 in assay [7] came to 3.4 mg/L (≈ 20.2 µM).

On to `COC(=O)C1=CO[C@@H](O[C@@H]2O[C@H](CO)[C@@H](O)[C@H](O)[C@H]2O)[C@H]2[C@@H]1C=C[C@@]21C=C([C@H](C)OC(=O)/C=C/c2ccc(O)cc2)C(=O)O1`, for which the EC50 in assay [1], in assay [2], in assay [3], in assay [4], in assay [5] and in assay [6] was more than 50 mg/L in each case. Further, the EC50 in assay [7] was more than 50 mg/L.

As to `COC(=O)[C@@H]1CO[C@H](O)[C@H]2[C@@H]1C=C[C@@]21C=C([C@H](C)O)C(=O)O1`, the EC50 in assay [1], in assay [2], in assay [3], in assay [4], in assay [5] and in assay [6] was more than 50 mg/L throughout. In addition, the EC50 in assay [7] is more than 50 mg/L.

Turning to `COC(=O)[C@@H]1CO[C@@H](O)[C@H]2[C@@H]1C=C[C@@]21C=C([C@H](C)O)C(=O)O1`, the EC50 in assay [1], in assay [2], in assay [3], in assay [4], in assay [5] and in assay [6] was more than 50 mg/L throughout. For the same compound, the EC50 in assay [7] is more than 50 mg/L.

As to `C/C=C1/C(=O)O[C@@]23C=C[C@H]4[C@@H](C(=O)OC)[C@H](O)O[C@@H](O[C@H]12)[C@H]43` [ALLAMANDIN], the EC50 is 0.4 mg/L (≈ 1.3 µM) in assay [1]; 0.3 mg/L (≈ 0.973 µM) in assay [2]; 0.2 mg/L (≈ 0.649 µM) in assay [3]; 0.3 mg/L (≈ 0.973 µM) in assay [4]; 0.4 mg/L (≈ 1.3 µM) in assay [5]; 0.7 mg/L (≈ 2.27 µM) in assay [6]. In assay [7], the EC50 came out at 0.8 mg/L (≈ 2.59 µM).

Take `C/C=C1/C(=O)O[C@@]23C=C[C@H]4C[C@H](O)O[C@@H](O[C@H]12)[C@H]43` [ALLAMCIN]: the EC50 was 0.3 mg/L (≈ 1.2 µM) in assay [1]; 0.3 mg/L (≈ 1.2 µM) in assay [2]; 0.2 mg/L (≈ 0.799 µM) in assay [3]; 0.9 mg/L (≈ 3.6 µM) in assay [4]; 0.1 mg/L (≈ 0.4 µM) in assay [5]; 1.2 mg/L (≈ 4.8 µM) in assay [6]. The EC50 in assay [7] is 3.1 mg/L (≈ 12.4 µM).

With `C/C=C/C=C1\C=Cc2c(C(=O)OC)coc(=O)c21` [FULVOPLUMIERIN], the EC50 in assay [1] worked out at 4.6 mg/L (≈ 18.8 µM); in assay [2], 1.3 mg/L (≈ 5.32 µM); in assay [3] it was 2.5 mg/L (≈ 10.2 µM); in assay [4], 0.7 mg/L (≈ 2.87 µM); in assay [5] it was 3.5 mg/L (≈ 14.3 µM); in assay [6], 3 mg/L (≈ 12.3 µM). The EC50 in assay [7] is 3.4 mg/L (≈ 13.9 µM).

For `COc1cc([C@H]2OC[C@H]3[C@@H]2CO[C@@H]3c2cc(OC)c(O[C@@H]3O[C@H](CO)[C@@H](O)[C@H](O)[C@H]3O)c(OC)c2)cc(OC)c1O[C@@H]1O[C@H](CO)[C@@H](O)[C@H](O)[C@H]1O` [LIRIODENDRIN], the EC50 is 6 mg/L (≈ 8.08 µM) in assay [1]; 16 mg/L (≈ 21.5 µM) in assay [2]; 2.4 mg/L (≈ 3.23 µM) in assay [3]; 19 mg/L (≈ 25.6 µM) in assay [4]; 30 mg/L (≈ 40.4 µM) in assay [5]; 6 mg/L (≈ 8.08 µM) in assay [6]. For the same compound, the EC50 in assay [7] was determined as 8.9 mg/L (≈ 12 µM).

`C/C=C1/C(=O)O[C@]23C=C[C@@H]4C(C(=O)OC)=CO[C@H](O[C@@H]12)[C@@H]43` [PLUMERICIN]: the EC50 came out at 0.3 mg/L (≈ 1.03 µM) in assay [1]; 0.1 mg/L (≈ 0.345 µM) in assay [2]; 1.2 mg/L (≈ 4.13 µM) in assay [3]; 2.8 mg/L (≈ 9.65 µM) in assay [4]; 0.4 mg/L (≈ 1.38 µM) in assay [5]; 0.2 mg/L (≈ 0.689 µM) in assay [6]. The EC50 in assay [7] stood at 0.2 mg/L (≈ 0.689 µM).

Turning to `COC(=O)C1=CO[C@@H](O[C@@H]2O[C@H](CO)[C@@H](O)[C@H](O)[C@H]2O)[C@H]2[C@@H]1C=C[C@@]21C=C([C@H](C)O)C(=O)O1` [PLUMIERIDE], the EC50 in assay [1], in assay [2], in assay [3], in assay [4], in assay [5] and in assay [6] was more than 50 mg/L each time. In addition, the EC50 in assay [7] was more than 50 mg/L.
